Measurements from patent publication US20110123482A1, “Methods of Treating Neurological Autoimmune Disorders with Cyclophosphamide” (The Johns Hopkins University, priority 2007, published 2011).
Where two headings read alike, the source gives them in different places.

Legend:
[1] = system: chronic relapsing experimental autoimmune encephalomyelitis (R-EAE) in SJL/J mice; conditions: mouse, in vivo
[2] = system: class II MHC molecules; conditions: cited from earlier work
[3] = system: RRMS; conditions: cited from earlier work

| Molecule | rate of induced relapse with PLP reimmunization following CPA treatment [1] [%] | spontaneous relapse rate of RR-EAE following CPA treatment [1] [%] | cessation of EAE activity, share of animals ([1]; 200 mg/kg) [%] | binding affinity to class II MHC molecules [2] | time of treatment to reduce the number of lesions and relapses ([3]; 20 mg GA, compared to placebo controls) | time of treatment to reduce the number of lesions and relapses ([3]; 40 mg daily, compared to controls) | induced relapse rate [1] [%] | rate of cessation of EAE activity by CPA [1] [%] | spontaneous relapse rate [1] [%] |
| --- | --- | --- | --- | --- | --- | --- | --- | --- | --- |
| O=P1(N(CCCl)CCCl)NCCCO1 (stereo not drawn) [CPA, N,N-bis(2-chloroethyl)-1,3,2-oxazaphosphinan-2-amine 2-oxide] | 70 | 30 | 95 | – | – | – | – | – | – |
| glatiramer acetate | – | – | – | binds with high affinity | approximately 3 months | less than 3 months | 10 | 95 | 2 |
